Among the test systems are A549; ACHN; CAKI-1; EKVX; HCC 2998; HCT-116; HT-29; Hs-578T; M14; MOLT-4; NCI-H460; OVCAR-8; PC-3; RXF 393; SK-MEL-5; SNB-19; SW-620; UACC-257; T47D.
Common to all, as to assay: growth of human tumour cells (NCI), 48 h

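48-hour exposure; five concentrations; linearly interpolated endpoints. GI50 marks 50% less growth.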 Calls of active or inactive are those of the source. Rule as the data show it: active = GI50 up to about 1.1 µM and inactive = higher. Some results are limits rather than exact numbers.

In the case of `COc1ccc(/C=C/C(=O)CCN2CCN(CCC(=O)/C=C/c3ccc(OC)cc3)CC2)cc1`, the GI50 in the experiment on A549 is 20.9 µM (inactive); in the experiment with ACHN, 14.2 µM (inactive); with CAKI-1, 13.5 µM (inactive); in the experiment with EKVX, 14.5 µM (inactive); in the experiment on HCC 2998 it was 12.2 µM (inactive); in the experiment with HCT-116, 3.29 µM (inactive). In addition, the GI50 in the experiment with HT-29 is 10.4 µM (inactive); with Hs-578T it was 20 µM (inactive); with M14, 15.3 µM (inactive); with MOLT-4, 6.87 µM (inactive); in the experiment on NCI-H460, 11.1 µM (inactive); in the experiment on OVCAR-8, 20.8 µM (inactive). Besides, the GI50 with PC-3 is 12.9 µM (inactive); in the experiment with RXF 393, 4.25 µM (inactive); with SK-MEL-5, 18.1 µM (inactive); in the experiment with SNB-19, 43.6 µM (inactive); in the experiment with SW-620, 4.1 µM (inactive); with UACC-257, 14.8 µM (inactive).

As for `COc1ccc(/C=C2\CN(C)CC3C2=NN(c2ccccc2)C3c2ccc(OC)cc2)cc1` (stereo not drawn), the GI50 with A549 was > 100 µM (inactive); in the experiment on ACHN, 77.1 µM (inactive); in the experiment on CAKI-1 it was 60 µM (inactive); in the experiment on EKVX it was > 100 µM (inactive); in the experiment on HCC 2998 it was > 100 µM (inactive); in the experiment on HCT-116, > 100 µM (inactive). For the same compound, the GI50 is > 100 µM (inactive) in the experiment with HT-29; 42.8 µM (inactive) with Hs-578T; 27.2 µM (inactive) with M14; > 100 µM (inactive) in the experiment on MOLT-4; > 100 µM (inactive) in the experiment on NCI-H460; 67.5 µM (inactive) with OVCAR-8. Further, the GI50 is 13 µM (inactive) with RXF 393; > 100 µM (inactive) in the experiment with SK-MEL-5; 27.2 µM (inactive) in the experiment on SNB-19; > 100 µM (inactive) in the experiment on SW-620; > 100 µM (inactive) in the experiment on T47D; > 100 µM (inactive) in the experiment with UACC-257.

As to `Cc1cc(C)c(C)c(-n2[nH]c(=O)n(C)c2=O)c1C`, the GI50 with A549, in the experiment on ACHN, in the experiment on CAKI-1, with EKVX, with HCT-116 and with HT-29 was > 100 µM (inactive) in each case. Moreover, the GI50 in the experiment on Hs-578T, in the experiment on M14, in the experiment on MOLT-4, with NCI-H460, in the experiment with OVCAR-8 and in the experiment with PC-3 was > 100 µM (inactive) each time. Further, the GI50 with SK-MEL-5, in the experiment on SNB-19, with SW-620, in the experiment on T47D and with UACC-257 was > 100 µM (inactive) in each case.

Turning to `CCCCCCCCCCCCCCCCOCC(COP(=O)([O-])OCC[n+]1ccc(N(C)C)cc1)OCC` (stereo not drawn), the GI50 in the experiment with A549 is 16.2 µM (inactive); in the experiment on ACHN it was 16.8 µM (inactive); in the experiment on HCC 2998, 13.7 µM (inactive); in the experiment on HCT-116 it was 11.3 µM (inactive); in the experiment on HT-29, 13.9 µM (inactive); in the experiment on Hs-578T, 17.9 µM (inactive). In addition, the GI50 in the experiment on M14 was 12.4 µM (inactive); in the experiment on MOLT-4, 4.52 µM (inactive); with NCI-H460 it was 12.1 µM (inactive); in the experiment on OVCAR-8, 19.5 µM (inactive); in the experiment on RXF 393, 16.3 µM (inactive); in the experiment with SK-MEL-5 it was 17.8 µM (inactive). In addition, the GI50 in the experiment with SNB-19 was 2.8 µM (inactive); in the experiment on SW-620, 18.3 µM (inactive); in the experiment with T47D it was 18 µM (inactive).

In the case of `Cc1cn(C2CC(N=[N+]=[N-])C(C(=O)O)O2)c(=O)[nH]c1=O` (stereo not drawn), the GI50 with A549, in the experiment with ACHN, with CAKI-1, with EKVX, in the experiment with HCC 2998 and in the experiment with HCT-116 was > 100 µM (inactive) throughout. In addition, the GI50 in the experiment with HT-29, in the experiment with Hs-578T, with M14, in the experiment on MOLT-4, with NCI-H460 and with OVCAR-8 was > 100 µM (inactive) in each case. For the same compound, the GI50 with PC-3 is > 100 µM (inactive); with RXF 393, > 100 µM (inactive); in the experiment with SK-MEL-5 it was < 0.01 µM (active); with SNB-19, > 100 µM (inactive); with SW-620, > 100 µM (inactive); in the experiment with UACC-257, > 100 µM (inactive).

For `NS(=O)(=O)c1nnc(NS(=O)(=O)c2ccc(F)cc2)s1`, the GI50 in the experiment on A549, with ACHN, in the experiment on CAKI-1, with EKVX, in the experiment on HCC 2998 and in the experiment on HCT-116 was > 100 µM (inactive) in each case. Besides, the GI50 with Hs-578T, in the experiment with M14, in the experiment with MOLT-4, in the experiment with NCI-H460, in the experiment with OVCAR-8 and in the experiment on RXF 393 was > 100 µM (inactive) in each case. The GI50 in the experiment with SK-MEL-5, with SNB-19, with SW-620, in the experiment with T47D and in the experiment on UACC-257 was > 100 µM (inactive) in each case.

On to `CCOC(=O)N/N=C(/OCC)c1ccccc1`, for which the GI50 in the experiment on A549, in the experiment with ACHN, with CAKI-1, with EKVX, with HCC 2998 and with HCT-116 was > 100 µM (inactive) in each case. For the same compound, the GI50 with HT-29, with Hs-578T, in the experiment on MOLT-4, with NCI-H460, with OVCAR-8 and in the experiment with RXF 393 was > 100 µM (inactive) each time. Further, the GI50 with SK-MEL-5, with SNB-19, in the experiment on SW-620, in the experiment on T47D and in the experiment with UACC-257 was > 100 µM (inactive) throughout.

`c1ccc(/N=C2\SC(c3ccccc3)CN2C23CC4CC(CC(C4)C2)C3)cc1` (stereo not drawn): the GI50 in the experiment on A549, with ACHN, with CAKI-1, in the experiment on EKVX, with HCC 2998 and with HCT-116 was > 100 µM (inactive) throughout. Besides, the GI50 in the experiment on HT-29, in the experiment with Hs-578T, in the experiment with M14, in the experiment with MOLT-4, with NCI-H460 and in the experiment with OVCAR-8 was > 100 µM (inactive) throughout. The GI50 with PC-3, with RXF 393, with SK-MEL-5, with SNB-19, in the experiment on SW-620 and in the experiment with UACC-257 was > 100 µM (inactive) each time.

(Values after ChEMBL document CHEMBL1201862, “PubChem BioAssay data set” (2004).)
